Assay results reported in PubChem BioAssay (NCI).
“And” between values parts separate entries of the source, which are not always exact repeats. Identical values can stand only once.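 Test compounds were applied to cells in 96-well plates for 48 hours at 5 doses. Here, GI50 denotes the concentration required for 50% inhibition of growth. TGI: total growth inhibition.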

How the values were obtained:
Experiment in all cases: NCI anticancer screen, dose series, 48 h
[1] = tested on: HCT-116 colon
[2] = tested on: HT29 colon
[3] = tested on: SK-MEL-5 melanoma
[4] = tested on: LOX IMVI melanoma
[5] = tested on: UO-31 renal
[6] = tested on: KM12 colon
[7] = tested on: M14 melanoma
[8] = tested on: SK-MEL-28 melanoma
[9] = tested on: NCI-H23 lung
[10] = tested on: OVCAR-3 ovarian

SMILES	TGI [1] [µM]	TGI [2]	TGI [3] [µM]	TGI [4] [µM]	TGI [5] [µM]	TGI [6] [µM]	TGI [7] [µM]	TGI [8] [µM]	TGI [9] [µM]	TGI [10] [µM]	GI50 [1] [µM]	GI50 [2]	GI50 [3] [µM]	GI50 [4] [µM]	GI50 [5] [µM]	GI50 [6] [µM]	GI50 [7]	GI50 [8] [µM]	GI50 [9] [µM]	GI50 [10] [µM]
N#CCC(=O)N/N=C1/C(=O)N(c2cc(Cl)ccc2Cl)C(=O)C(=O)C1c1nc2ccccc2s1 (stereo not drawn)	> 100	> 100 µM	> 100	> 100	> 100	> 100	> 100	> 100	> 100	> 100	–	–	–	–	–	–	–	–	–	–
Oc1c(Cl)cc(Cl)cc1/C=N/Nc1nnc(N/N=C/c2cc(Cl)cc(Cl)c2O)c2ccccc12	> 100	> 100 µM	2.2	0.586	> 100	> 100	> 100	> 100	> 100	18.2	0.433	0.595 µM	0.505	0.225	0.43	0.335	0.434 µM	0.622	0.406	0.334
COc1cccc(-c2cc(=O)c3cc(N4CCOCC4)ccc3[nH]2)c1	–	0.883 µM and 0.125 µM	–	–	> 100	–	> 100	–	–	0.0412	0.0371	0.0359 µM and 0.029 µM	0.0319	0.0261	0.0713	0.0243	0.0365 µM and 0.0749 µM	0.0248	0.55	–
Cc1ccc(C=C2C(Cl)=C(Cl)C(Cl)=C2Cl)cc1	1.04	2.89 µM	2.41	0.959	2.18	2.56	1.66	2.64	2.5	1.06	0.358	0.796 µM	1.09	0.303	0.757	1.15	0.561 µM	1.25	0.533	0.361
CN(C)CCCSc1ccccc1NC1=C(Cl)C(=O)C(Nc2ccccc2SCCCN(C)C)=C(Cl)C1=O	2.93	4.16 µM	3.55	2.88	2.79	4.09	3.72	3.12	3.74	2.89	1.52	2.13 µM	1.83	1.39	1.47	1.89	1.74 µM	1.67	1.75	1.53
COc1cc(-c2nc3sc(C)cn3c2/C=C2\C(=O)Nc3ccccc32)c(Br)c(OC)c1OC	> 100	55.5 µM	43.2	> 100	> 100	49.5	> 100	> 100	> 100	51	26	26.9 µM	19.5	30.3	37.1	17.5	29.1 µM	39.1	30.9	22.9
CC(=O)OCCOCNC(=S)N/N=C/c1cc([N+](=O)[O-])ccc1O	> 100	> 100 µM	> 100	> 100	> 100	> 100	> 100	> 100	> 100	> 100	–	–	–	–	–	–	–	–	–	–
